Reference: patent US8648113B2, “Mixture and compounds from mycelia of Antrodia camphorata and use thereof” (Simpson Biotech Co., Ltd., priority 2004, dated 2014)
Where “and” joins values, the source holds several entries; their conditions need not be identical. Equal values may be shown once. Read-outs that look alike come from different tables or passages of the source.

Legend:
[1] = system: spontaneously hypertensive rats (SHR); conditions: 0.1 mg/kg PO, Ave. of 3 rats (Tables 7 and 9: two experiments)
Procedure: Blood pressure and heart rate were recorded indirectly by tail cuff method in a temperature controlled environment (32±1° C.) before (0 time) and 1, 2 and 4 hours after oral administration of test substance or vehicle. A reduction in systolic pressure by 10 percent or more (>10%), or decrease in heart rate by 20 percent or more (≧20%), at each measured time interval relative to 0 time, is considered significant.
Blood pressure was recorded indirectly vial tail cuff at 0 time (before) and 1, 2 and 4 hours after oral administration of vehicle or test substance. A reduction in blood pressure by 10 percent or more (10%), or decrease in heart rate by 20 percent or more (≧20%) at each measurement time point relative to 0 time, shown in parenthesis, is considered significant.

[2] = system: HepG2: human liver carcinoma; assay: Tumor assay of ACM, MTT method, HepG2; format: cell-based; conditions: 3 days
From the text: (§1) Tumor Assay of ACM (Antrodia camphorata Mycelia Powder) A. Cell Line • Adherent Cell • MCF-7: human breast carcinoma • HT-29: human colon adenocarcinoma • KATO III: human stomach carcinoma • SW480: human colon adenocarcinoma • SW620: human colon adenocarcinoma • HepG2: human liver carcinoma • Suspension Cell • EL4: mice lymphoma B. Samples • Compound 1, Compound 3, ACM EtOH Extract, ACM H2O Extract C. Assay Method • Calculate ED50 (50% inhibition of effective dose) • Adherent cell: MTT (methyl thiazolyl tetrazolium) method for MCF-7, HT-29, KATO III, SW480, HepG2, cells are determined at 3 days. SW620 at 4 days • Suspension cell: Cell count method; EL4 cells count at 5 days D. Result Calculation: y=m Ln(x)+b
(§2) Use value of X (10, 30, 50 ppm) and Y to get correlation curve y=−0.2643 Ln(x)+1.5321 ED50=exp[0.97/2−1.5321/(−0.2643)] Sample Preparation and Sample Description A. ACM (Antrodia Camphorata Mycelia Powder) H2O Extract 1. Add 1 g of ACM into 40 ml of RO H2O in a 250 ml beaker, put the beaker in ultrasonic water bath for 20 min at room temperature 2. Stir at 45° C. water bath for 45 min 3. Place the beaker in ultrasonic water bath for another 20 min 4. Centrifuge the sample at 3000 rpm for 15 min 5. Collect supernatant and perform serial dilutions with media B. Determination of Sample Concentration 1. […] Read at OD545 on Elisa reader Cell Count Method (EL4 Cell Line) 1. […]

[3] = system: HT-29: human colon adenocarcinoma; assay: Tumor assay of ACM, MTT method, HT-29; format: cell-based; conditions: 3 days
From the text: as §1, §2

[4] = system: KATO III: human stomach carcinoma; assay: Tumor assay of ACM, MTT method, KATO III; format: cell-based; conditions: 3 days
From the text: as §1, §2

EL4: mice lymphoma = assay: Tumor assay of ACM, cell count method, EL4; format: cell-based; conditions: 5 days
From the text: as §1, §2

[5] = system: SW480: human colon adenocarcinoma; assay: Tumor assay of ACM, MTT method, SW480; format: cell-based; conditions: 3 days
From the text: as §1, §2

[6] = system: SW620: human colon adenocarcinoma; assay: Tumor assay of ACM, MTT method, SW620; format: cell-based; conditions: 4 days
From the text: as §1, §2

[7] = system: MCF-7: human breast carcinoma; assay: Tumor assay of ACM, MTT method, MCF-7; format: cell-based; conditions: 3 days
From the text: as §1, §2

[8] = system: ICR derived male mice, carbon tetrachloride induced hepatic injury; assay: Hepatic Injury, Carbon Tetrachloride, in Mice; format: in vivo, mouse; conditions: for ALT, group mean (X) / AST, group mean (X) / ALT, individual animal / AST, individual animal: CCl4-challenged ICR mice; for ALT, group mean (X) / AST, group mean (X): mean of 5; for ALT, individual animal / AST, individual animal: single animals N 1-5, 24 h after CCl4; for ALT Dec. % / AST Dec. %: decrease relative to vehicle group, brackets = 30% or greater
Procedure: Nine groups of ICR derived male mice (weighing 22±2 g) of 5 each were used. Each animals was challenged with a single dose of carbon tetrachloride (CCl4, 0.1 ml/kg in 50% olive oil, PO). […] The animals were sacrificed 24 hours after CCl4. Alanine aminotransferase (ALT) and Aspartate aminotransferase (AST) levels were measured by optimized UV method using a HITACHI automatic analyzer (model 7050). A reduction of ALT or AST levels by 30 percent or greater (30%), relative to the vehicle group, indicating significant protection from hepatic injury.
The test substance of ACM at doses 300 and 1000 mg/kg and compound 3 of the invention at doses 30, 100 and 300 mg/kg were administered orally to test animals 0.5 hour before and 4, 8 hours after CCl4 challenge. […] The degree of hepatic injury was determined by increase in serum alanine aminotransferase (ALT) and aspartate aminotransferase (AST) levels relative to the vehicle treated animals. ACM at 1000 mg/kg×3 and compound 3 of the invention at 300 mg/kg×3 caused a significant reduction of ALT (46% and 41%) and AST (36% and 33%) relative to the vehicle treated animals.

[9] = system: LLC (Lewis lung carcinoma) cell line; assay: Cytotoxic assay, in vitro LLC tumor cell assay (SRB method); conditions: for 50% Growth Inhibition (ED50): SRB method
[10] = system: LLC (Lewis lung carcinoma) cell line

Clc1cccc(Cl)c1N=C1NCCN1 [Clonidine]
Heart Rate % Control (from 0 times), 2 Hours [1]: 90% and 86%
Heart Rate % Control (from 0 times), 4 Hours [1]: 98% and 102%

CC(C)=CCOc1ccc(C2=C(CC(C)C)C(=O)N(O)C2=O)cc1 [Compound 3, 3-Isobutyl-4-[4-(3-methyl-2-butenyloxy)phenyl]-1H-pyrrol-1-ol-2,5-dione]
ED50 [2]: 35 ppm
ED50 [3]: 42 ppm
ED50 [4]: 69 ppm
ED50 (EL4: mice lymphoma): 2.6 ppm
ED50 [5]: 20 ppm
ED50 [6]: 27 ppm
ED50 [7]: 0.02 ppm
reduction of ALT relative to the vehicle treated animals ([8]; CCl4 mice, 300 mg/kg×3 PO): 41%
reduction of AST relative to the vehicle treated animals ([8]; CCl4 mice, 300 mg/kg×3 PO): 33%
ALT, group mean (X) ([8]; PO 30 mg/kg × 3): 3360 U/L
AST, group mean (X) ([8]; PO 30 mg/kg × 3): 1962 U/L
ALT, individual animal ([8]; PO 30 mg/kg × 3): 4296 U/L and 3696 U/L and 2152 U/L and 2400 U/L and 4256 U/L
AST, individual animal ([8]; PO 30 mg/kg × 3): 2136 U/L and 2288 U/L and 1096 U/L and 1792 U/L and 2496 U/L
ALT Dec. % ([8]; PO 30 mg/kg × 3): −1%
AST Dec. % ([8]; PO 30 mg/kg × 3): −16%
ALT, group mean (X) ([8]; PO 100 mg/kg × 3): 3342 U/L
AST, group mean (X) ([8]; PO 100 mg/kg × 3): 1984 U/L
ALT, individual animal ([8]; PO 100 mg/kg × 3): 3200 U/L and 4576 U/L and 2512 U/L and 2728 U/L and 3696 U/L
AST, individual animal ([8]; PO 100 mg/kg × 3): 2256 U/L and 2976 U/L and 1536 U/L and 1552 U/L and 1600 U/L
ALT Dec. % ([8]; PO 100 mg/kg × 3): 0%
AST Dec. % ([8]; PO 100 mg/kg × 3): −17%
ALT, group mean (X) ([8]; PO 300 mg/kg × 3): 1966 U/L
AST, group mean (X) ([8]; PO 300 mg/kg × 3): 1130 U/L
ALT, individual animal ([8]; PO 300 mg/kg × 3): 1368 U/L and 1576 U/L and 1440 U/L and 2728 U/L and 2720 U/L
AST, individual animal ([8]; PO 300 mg/kg × 3): 776 U/L and 896 U/L (2×) and 1352 U/L and 1728 U/L
ALT Dec. % ([8]; PO 300 mg/kg × 3): (41) %
AST Dec. % ([8]; PO 300 mg/kg × 3): (33) %
cytotoxic activity (in words) [9]: cytotoxic
50% Growth Inhibition (ED50) [9]: 7.5 µg/mL

CC(C)=CCOc1ccc([C@H]2C(=O)N(O)C(=O)[C@@H]2CC(C)C)cc1 (relative stereo) [Compound 4, 3R*,4S*-1-Hydroxy-3-isobutyl-4-[4-(3-methyl-2-butenyloxy)phenyl]pyrrolidine-2,5-dione]
cytotoxic activity (in words) [10]: no cytotoxic activity
50% Growth Inhibition (ED50) [9]: >10 µg/mL

CC(C)=CCOc1ccc(C2=C(CC(C)C)C(=O)OC2=O)cc1 [Compound 1, 3-Isobutyl-4-[4-(3-methyl-2-butenyloxy)phenyl]furan-2,5-dione]
ED50 [2]: 21 ppm
ED50 [3]: 52 ppm
ED50 [4]: 38 ppm
ED50 (EL4: mice lymphoma): 3.5 ppm
ED50 [6]: 15 ppm
ED50 [7]: 6 ppm
cytotoxic activity (in words) [9]: no cytotoxic activity
50% Growth Inhibition (ED50) [9]: >20 µg/mL
